Here are results for 6 compounds from patent publication US6319910A, “Method for inhibiting cyclooxygenase-2 and tumor necrosis factor alpha” (Hospital for Joint Diseases, priority 1998, dated 2001).

One may read the inhibition as the change of the read-out against control, counted positive when it falls.

The target in assay [1] is T1, COX-2 (Mus musculus, UniProt Q05769).
T1 construct: using total unfractionated cell extracts; endogenous in cells; host or cells: RAW 264.7 cells, LPS-induced; cell-free extract
T1 sequence (Q05769 18-604): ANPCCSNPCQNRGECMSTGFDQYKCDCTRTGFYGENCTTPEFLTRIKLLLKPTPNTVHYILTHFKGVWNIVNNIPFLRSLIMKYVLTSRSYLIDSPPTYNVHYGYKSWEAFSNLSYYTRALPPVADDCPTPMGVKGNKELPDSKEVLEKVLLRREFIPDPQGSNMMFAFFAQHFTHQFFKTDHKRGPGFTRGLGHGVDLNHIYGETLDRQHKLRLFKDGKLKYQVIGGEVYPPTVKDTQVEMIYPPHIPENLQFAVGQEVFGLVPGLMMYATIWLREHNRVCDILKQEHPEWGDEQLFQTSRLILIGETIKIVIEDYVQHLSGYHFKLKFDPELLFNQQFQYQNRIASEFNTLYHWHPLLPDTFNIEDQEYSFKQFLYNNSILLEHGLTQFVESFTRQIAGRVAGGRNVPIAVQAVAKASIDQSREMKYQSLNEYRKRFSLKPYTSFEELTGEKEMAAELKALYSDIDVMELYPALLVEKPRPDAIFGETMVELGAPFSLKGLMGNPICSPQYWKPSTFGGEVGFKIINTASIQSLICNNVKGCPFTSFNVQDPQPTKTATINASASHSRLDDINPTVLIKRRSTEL
The assay can be described thus: COX-2 specific activity in cell-free extracts of LPS-stimulated RAW 264.7 cells (PGE2 by RIA). In kind it is biochemical, murine. How it is done:
Raw 264.7 cells were stimulated with LPS and cell-free extracts were prepared as follows. RAW 264.7 cells were induced with LPS (100 ng/ml) in the presence or absence of tetracyclines or hydrocortisone for 14-20 hours. Following induction, the cells were pelleted at 4° C. and resuspended in Tris buffer: 10 mM, pH 7.4 containing 10 μg/ml each of chymostatin, antipain, leupeptin and pepstatin, 1 mM DDT and 1 mM PMSF. Cells were lysed in a Polytron PA 1200 homogenizer (Kinematica AG, Switzerland) with the cocktail of protease inhibitors after 3 cycles of rapid freeze-thawing. The lysate was centrifuged at 18,000 at 4° C. in an eppendorf centrifuge, and the resulting supernatant was used as cell-free extracts. The protein was measured by BCA assay reagent (Pierce, Rockford, Ill.) using BSA as standard. […] The specific enzyme activity was defined as ng of PGE2 released/mg protein/37° C. for 20 minutes.
RAW 264.7 cells were stimulated with 1 μg/ml of LPS for 16 hours and cell-free extracts were prepared as described above. The extracts were incubated with different modulators for 20 minutes at 37° C. before adding the substrate to initiate the enzyme reaction, which was terminated after 30 minutes by heat inactivation. The data represent one of the two experiments, the PGE2 analysis from each sample was done in triplicates n=3. The p value is a comparison between control and experimentals.

For assay [2], the system named is OA-affected cartilage. The assay can be described thus: Spontaneous nitrite/nitric oxide release by OA-affected cartilage (ex vivo organ culture). The assay is classed as cell-based, human. As to conditions: Table 2; 5 μg/ml. How it is done: (§1) Human osteoarthritis affected cartilage spontaneously release nitric oxide (NO) and PGE2 in the medium as previously reported (Amin et al, 1995a; 1997a). The OA-organ cultures were set up as described (Amin et al, 1995a; 1997a). Briefly, total knee articular cartilage from tibial plateau and femoral condyle were harvested from OA-affected patients. The cartilage was mixed and cut into 3-mm discs and 4-6 discs were placed in triplicate or quadruplicate, in a 24-well plate in 2.0 ml of Ham's F-12 medium supplemented with 0.2% endotoxin free human albumin, 10 mM Hepes pH 7.4 and antibiotics in the presence of various modulators, as previously described (Amin et al, 1995a; 1997a). CMT-8 was used at pharmacologically relevant concentrations in DMSO (<0.01% final concentration) as carrier. An equivalent amount of DMSO was also added in the control cultures.
(§2) The p value between control and CMT-8 treated values for PGE2≤0.1 (insignificant) whereas the p values between NMMA treated cartilage and CMT-8 treated cartilage was ≤0.001 (significant). The data are represented as mean±SD as examined by T test when n=3. Data represent±SD value as determined by Student's t test n=4. The P values described are compared with control unstimulated OA-cartilage. The data represents one of the two similar experiments. P values for PGE2 and Nitrite=^a≤0.5; ^b≤0.1; ^c≤0.05; ^d≤0.01.

Assay [3] deals with RAW 264.7 cells. The assay can be described thus: Nitrite (NO) production/accumulation in LPS-stimulated RAW 264.7 cells. As to conditions: for inhibition at 10 µg/mL: Mus musculus, RAW264.7, 16 h. In kind it is cell-based, murine. The procedure: (§3) Murine macrophages (RAW 263.7 cells) which were grown in Dulbecco's modified eagle medium (DMEM) containing 10% fetal bovine serum, 2 mM glutamine, 50 U/ml penicillin and 50 μg/ml streptomycin, were stimulated with 100 ng/ml LPS to induce both NOS and COX-2 at 16 hr. […] The data presented in FIG. 1 represents mean±SD as examined by T test were n=3.
(§4) The effects of CMTs 1, 2, 3, 5 and 8 on PGE2 and NO accumulation in RAW 264.7 cells were further evaluated as described above for CMT-3. […]

For assay [4], the system named is RAW 264.7 cells. Put plainly: PGE2 production/accumulation in LPS-stimulated RAW 264.7 cells. The assay is classed as cell-based, murine. Conditions: for inhibition at 10 µg/mL: Mus musculus, RAW264.7, 16 h, read-out: PGE2 % Inhibition or (Increase). How it is done: as §3, §4
Assay [5] deals with OA-affected cartilage. Put plainly: Spontaneous PGE2 release by OA-affected cartilage (ex vivo organ culture). In kind it is cell-based, human. As to conditions: Table 2; 5 μg/ml. How it is done:
as §1, §2

The test system of assay [6] is TNFα. The assay can be described thus: TNFα release in the medium by HEK 293 cells permanently transfected with human proTNFα (ELISA). In kind it is cell-based. As to conditions: words; for Effect on spontaneous TNFα release: FIG. 8, 16 hours. How it is done: HEK 293 cells were transfected with the proTNFα cDNA (wild) to prepare a stable cell line. […] A mutant form of proTNFα cDNA which could not be cleaved by the endogenous TNFα convertase (TACE) to release soluble TNFα was also transfected in separate human HEK 293 cells. The soluble TNFα was estimated by ELISA from the wild type and mutant transfected cells from the medium (FIG. 6).
HEK 293 cells were grown as previously described by American Type Culture Collection (ATCC). […] The HEK 293 cells were incubated with CMT-3 to examine the effects of CMT-3 on TNFα release in the medium.
HEK 293 cells were grown under the conditions previously described by ATCC. Various compounds, including CMT-3 and doxycycline/minocyclines were incubated with proTNFα transfected HEK 293 cells releasing TNFα in the medium at 16 hours. […] Soluble TNFα was estimated by ELISA from the medium.
On the technique in general: ELISA stands for enzyme-linked immunosorbent assay.

The subject of assay [7] is NOS. Put plainly: NOS expression in LPS-stimulated murine macrophages. The assay is classed as cell-based. Conditions: FIG. 2; LPS 100 ng/ml; words. The procedure:
(§5) RAW 263.7 cells were grown as previously described (Amin et al, 1995b). Murine macrophages stimulated with 100 ng/ml LPS were incubated with CMT-3 or tunicamycin (a glycosylation inhibitor). […] Nitrite and PGE2 were estimated as previously described (Amin et al, 1995b). It is quite possible that CMT-3 may inhibit COX-2 and PGE2 production by post translational modification of COX-2 which may be similar to tunicamycin inhibition. The data represents the mean±SD evaluated by T test (n=3).

For assay [8], the system named is COX-2. Put plainly: Expression/modification (size) of COX-2 in LPS-stimulated murine macrophages, Western blot. As to conditions: LPS 100 ng/ml, words. The assay is classed as cell-based. How it is done:
as §5
Murine macrophage cells were cultivated as previously described (Amin et al, 1995b). […] cells were stimulated with 100 ng/ml of LPS in the presence of CMT-3, CMT-5 and glycosylation inhibitor, tunicamycin. The cells were grown for 16 hr and harvested. The cell free extracts were prepared as previously described (Amin et al, 1995b). In FIG. 4A, 50 μg of protein was loaded in each well and run on SDS-PAGE gels and blotted onto Western blots using a specific anti COX-2 antibody as previously described (Amin et al, 1997a). The positive control is a standard COX-2. […] The size is approximately 2000 D smaller (CMT-3 form) than the native COX-2 shown as a standard. […] These experiments indicate that CMT-3 induces modification of the COX-2 protein. The SDS PAGE analysis and Western blotting of COX-2 was carried out as described above.

Setting [9] is: Experiment I, LPS 100 ng/ml, compound 10 μg/ml, 16 hours.
Setting [10] is: Experiment II, LPS 100 ng/ml, compound 10 μg/ml, 16 hours.

In the case of `CC(=O)Oc1ccccc1C(=O)O` [Aspirin, aspirin, reference compound], the “Effect on specific activity of COX-2” value in assay [1] (CMT-3 27 μM, CMT-8 27 μM, aspirin 56 μM, indomethacin 28 μM, words) was “significantly inhibited the specific activity of COX-2”. Further, the “COX-2 Specific Activity” value in assay [1] (Table 3, cell-free extracts, 10 μg (aspirin amount not given)) turned out to be 2.1 ± 0.1 PGE2 ng/mg protein.
Turning to `C[C@@]1(O)c2cccc(O)c2C(O)=C2C(=O)[C@]3(O)C(O)=C(C(N)=O)C(=O)C[C@@H]3C[C@@H]21` [CMT-1, 4-dedimethylaminotetracycline], the figures for the Nitrite in assay [2], in assay [3] (setting [9]) and in assay [3] (setting [10]) were 82.0 ± 33.0 µM, 50.8 µM and 20.3 µM, respectively. The PGE2 accumulation came out at 31.5 ± 2.5 ng/mL in assay [4] (16 h, 10 ug/mL) and 30.2 ± 8.0 ng/mL in assay [4] (setting [10]). The compound also registered a PGE2 in assay [5] of 131.8 ± 37.7 ng/mL. For the same compound, in assay [6], the “Effect on spontaneous TNFα release” value was “inhibit the spontaneous TNFα release”. In assay [6] (HEK 293 cells transfected with proTNFα cDNA, low levels), the “Inhibition of TNFα (summary statement)” value is on record as “inhibiting TNFα”.
Take `CN(C)C1C(=O)C(C#N)=C(O)C2(O)C(=O)C3=C(O)c4c(O)cccc4C(C)(O)C3CC12` (stereo not shown) [CMT-2]: the Nitrite in assay [2] worked out at 84.0 ± 20.0 µM; in assay [3] (setting [10]), 23.3 ± 3.5 µM. Further, the PGE2 accumulation was determined as 26.8 ± 8.8 ng/mL in assay [4] (setting [9]) and 22.9 ± 5.0 ng/mL in assay [4] (setting [10]). Further, the PGE2 in assay [5] came to 145.2 ± 61.6 ng/mL. In addition, in assay [6], the “Effect on spontaneous TNFα release” value is “not CMT-2 and CMT-5, inhibit the spontaneous TNFα release”.
As for `C[C@@H]1C[C@@H]([C@H](O)CC2CC(=O)NC(=O)C2)C(=O)[C@@H](C)C1` [Cycloheximide, cycloheximide, reference compound], in assay [6] (FIG. 7), the “Effect on TNFα release in the medium” value is recorded as “inhibited the release of TNFα in the medium”. Besides, the “Effect on spontaneous TNFα release” value in assay [6] was “inhibit the release of TNFα”.
Take `C[C@]12CCC(=O)C=C1CC[C@@H]1[C@@H]2[C@@H](O)C[C@@]2(C)[C@H]1CC[C@]2(O)C(=O)CO` [Hydrocortisone, hydrocortisone, reference compound]: the Nitrite in assay [3] (16 h, 10 ug/mL) amounted to 34.3 µM; in assay [3] (setting [10]), 12.9 µM. Besides, the inhibition at 10 µg/mL is 32% in assay [3] (setting [9]), 40% in assay [3] (setting [10]), 52% in assay [4] (setting [9]) and 50% in assay [4] (setting [10]). Further, the PGE2 accumulation in assay [4] (16 h, 10 ug/mL) was determined as 12.3 ± 2.6 ng/mL; in assay [4] (setting [10]), 9.5 ± 0.5 ng/mL.
As to tunicamycin [reference compound], the “Effect on NO production” value in assay [3] (FIG. 2, LPS 100 ng/ml, words) is “inhibit”. In addition, the “Effect on PGE2 production” value in assay [4] (FIG. 2, LPS 100 ng/ml, words) was “inhibit”. Also, the “Effect on NOS expression” value in assay [7] is reported as “inhibit”. Besides, the “Effect on COX-2 expression” value in assay [8] (FIG. 2) is “inhibit”. For the same compound, in assay [8] (FIG. 4A, 16 hr, Western blot), the “Effect on size of COX-2” value is recorded as “much smaller than the native form”.
